From BindingDB's records for patent US20230365541 (Haisco Pharmaceuticals, 2023)
pIC50: −log10 of the molar value.

Molecular target: Histone-lysine N-methyltransferase EZH2 (Homo sapiens, UniProt Q15910)
Assay: EZH2 Enzyme Activity Assay
Description: The compounds were dissolved in DMSO, formulated into 10 mM solutions and serially diluted with DMSO to obtain 100-fold the final concentration. 200 nL of the solutions of the compounds was transferred to a 384-well plate (Perkin Elmer, Cat. No. 6007299) by using Echo550. EZH2 (BPS, Cat. No. 51004) was diluted with 1×assay buffer (50 mM Tris-HCl 9.0, 0.01% Tween-20, 1 mM DTT) to 2-fold the final concentration (EZH2: 3 nM). A mixed solution of H3K27(21-44) and [3H]-SAM (PerkinElmer, Lot. No. 2146246) (H3K27(21-44): 200 nM, [3H]-SAM: 100 nM) was formulated. The EZH2 diluted solution was taken and added to the 384-well plate at 10 μL/well (10 μL of 1×assay buffer was added in the control group). The plate was sealed and then incubated at room temperature for 15 minutes. 10 μL of the mixed solution of H3K27 (21-44) and [3H]-SAM was added to each well. The plate was sealed and then incubated at room temperature for 60 minutes. 50 μM of SAM (Sigma, Cat. No. A7007) was formulated at low temperature and added to the 384-well plate at 10 μL/well. The sample was taken at 25 μL/well, transferred to a flashplate and incubated at room temperature for at least 1 hour. The flashplate was washed 3 times with a plate washing liquid (dH2O+0.1% Tween-20) and read by using Microbeta.

Chain of Histone-lysine N-methyltransferase EZH2 (Q15910 whole entry): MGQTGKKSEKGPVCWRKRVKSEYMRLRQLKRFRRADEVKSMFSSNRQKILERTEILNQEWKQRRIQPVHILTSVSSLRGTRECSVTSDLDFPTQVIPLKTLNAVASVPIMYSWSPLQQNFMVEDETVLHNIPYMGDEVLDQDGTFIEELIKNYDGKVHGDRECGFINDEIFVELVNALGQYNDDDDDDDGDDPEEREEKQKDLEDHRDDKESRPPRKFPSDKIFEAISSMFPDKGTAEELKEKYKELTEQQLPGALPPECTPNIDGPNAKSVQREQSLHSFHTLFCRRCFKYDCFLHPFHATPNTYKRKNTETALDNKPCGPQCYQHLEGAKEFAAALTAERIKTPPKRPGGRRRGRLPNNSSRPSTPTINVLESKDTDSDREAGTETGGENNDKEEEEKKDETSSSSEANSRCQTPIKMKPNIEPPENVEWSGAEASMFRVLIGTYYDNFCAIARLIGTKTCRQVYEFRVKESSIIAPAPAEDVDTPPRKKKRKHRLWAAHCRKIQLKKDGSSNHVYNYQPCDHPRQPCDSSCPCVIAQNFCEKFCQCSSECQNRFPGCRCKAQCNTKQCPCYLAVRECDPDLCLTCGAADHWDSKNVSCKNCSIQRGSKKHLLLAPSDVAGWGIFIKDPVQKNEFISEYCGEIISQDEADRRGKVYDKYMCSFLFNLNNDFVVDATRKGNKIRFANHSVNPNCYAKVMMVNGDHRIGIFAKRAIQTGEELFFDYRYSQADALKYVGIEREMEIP

How did the pIC50 turn out when `CNC(=O)N1CCC(C2(C)Oc3c(Cl)cc(C(=O)NCc4c(SC)cc(C)[nH]c4=O)c(C)c3O2)CC1` (configuration not stated) [US20230365541, Compound 13] was run?
The pIC50 was 9.37.

`CSc1cc(C)[nH]c(=O)c1CNC(=O)c1cc(Cl)c2c(c1C)OC(C)(C1CCN(S(C)(=O)=O)CC1)O2` (configuration not stated) [US20230365541, Compound 14] was tested. Which pIC50 did it give?
Its pIC50 is 9.32.
